Assay results published in patent US5342841A, “Xanthine derivatives” (Kyowa Hakko Kogyo Co., Ltd., priority 1992, dated 1994).

Columns and labels:
[1] = tested on: Male Wistar rats; experiment: Diuretic activity (oral, saline-loaded rats); assay type: in vivo, rat; details: for Increase in volume of Urine / Na+/K+ / Increase in K+ excretion / Increase in Na+ excretion: 6 hours; for Increase in volume of Urine / Increase in K+ excretion / Increase in Na+ excretion: relative to control; for Na+/K+: relative to control (1.00)
Description: Male Wistar rats weighing 150 to 300 g were fasted for 18 hours. A test compound and saline (25 ml/kg) were orally administered to the test rats and only saline was administered to the control rats. Then, urine was collected for 6 hours. The test was carried out using 3 groups of animals per test compound, each group consisting of 3 animals. The volume of the urine was measured by using a measuring cylinder and electrolytes (Na^+ and K^+) in the urine were assayed with a flame photometer (Model […] manufactured by Hitachi Ltd.). The parameters in Table 3 are all expressed by relative value to the control.

[2] = tested on: glycerol-induced renal insufficiency in male Wistar rats; experiment: Renal protecting activity (glycerol-induced renal insufficiency model), serum creatinine and urea nitrogen; assay type: in vivo, rat; details: i.p.; for Creatinine content in serum, test compound administered / Urea nitrogen content in serum, test compound administered: 24 hours after glycerol; for increases in creatinine content and urea nitrogen content of the serum (in words): Compound 1 at 0.1 mg/kg (p<0.001)
Description: Renal insufficiency is the condition that the homeostasis of body fluid is unable to be maintained by disorder of renal function. It is known that subcutaneous or intramuscular administration of glycerol to rat induces acute renal insufficiency characterized by renal tubular disturbance [Can. J. Physiol.
(§1) Male Wistar rats were fisted from both food and water for 18 hours. A test compound or saline (control) was intraperitoneally administered to the rats. After 30 minutes, the rats were anesthesized with ether and the back skin was picked up and 0.8 ml/100 g of 50% glycerol was subcutaneously administered. Twenty four hours after the glycerol injection, the rats were anesthesized with ether and 5 ml of the blood was collected from the descending aorta. After being allowed to stand for 30 minutes or longer, the blood sample was centrifuged at 3000 rpm for 10 minutes to obtain the serum. Creatinine in the serum sample was determined using autoanalyzer (AU510, Olympus Optical Co., Ltd.) or clinical analysis kit of creatinine (Creatinine Test Wako; by Wako Pure Chemical Ind., Japan). Urea nitrogen in the serum was determined using autoanalyzer (AU510; made by Olympus Optical Co., Ltd.) or clinical analysis kit of urea nitrogen (Urea Nitrogen Test Wako; by Wako Pure Chemical Ind., Japan).
Test of the significance between the control group and the test compound-administered group was performed by the Student's t-test (n=8 to 10).

[3] = target: T1, Adenosine A1 receptor (Cavia porcellus, UniProt P47745); experiment: Adenosine A1 receptor binding (3H-CHA); details: guinea pig cerebrum; for Ki: 3H-CHA, Cheng-Prusoff's equation; for inhibition at 100 µM: 10^-4 M test compound; for inhibition at 100 µM / inhibition at 10 µM: 3H-CHA 1.1 nM; for inhibition at 10 µM: 10^-5 M test compound
T1 construct: from tissue; host or cells: guinea pig cerebrum membranes
T1 sequence (P47745 1-326): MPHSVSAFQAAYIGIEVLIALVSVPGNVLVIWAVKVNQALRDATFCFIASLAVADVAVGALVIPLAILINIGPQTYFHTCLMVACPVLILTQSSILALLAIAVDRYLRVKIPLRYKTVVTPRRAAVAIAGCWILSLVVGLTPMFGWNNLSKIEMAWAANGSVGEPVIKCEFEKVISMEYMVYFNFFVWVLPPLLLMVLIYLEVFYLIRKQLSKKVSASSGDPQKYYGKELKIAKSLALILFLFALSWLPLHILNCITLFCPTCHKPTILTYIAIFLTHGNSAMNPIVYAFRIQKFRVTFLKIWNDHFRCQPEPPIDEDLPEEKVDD
Description: This test was conducted according to the method of Bruns et al. [Proc. Natl. Acad. Sci., 77, 5547 (1980)] with slight modification.
Cerebrum of a guinea pig was suspended in ice cooled 50 mM Tris hydroxymethyl aminomethane hydrochloride (Tris HCl) buffer (pH 7.7) by using Polytron homogenizer (manufactured by Kinematicas Co.). The suspension was centrifuged (50,000×g, 10 minutes), and the precipitate was suspended again in the same amount of 50 mM Tris HCl buffer. The suspension was centrifuged under the same conditions, and the precipitate obtained was suspended once again in 50 mM Tris HCl buffer to give a tissue concentration of 100 mg (wet weight)/ml. The tissue suspension was incubated at 37° C. for 30 minutes in the presence of 0.02 unit/mg tissue of adenosine deaminase (manufactured by Sigma Co.). The tissue suspension was then centrifuged (50,000×g, 10 minutes), and 50 mM Tris HCl buffer was added to the precipitate to adjust the concentration of tissue to 10 mg (wet weight)/ml.
To 1 ml of the thus prepared tissue suspension were added 50 μl of cyclohexyladenosine labeled with tritium [^3 H-CHA, 27 Ci/mmol, manufactured by New England Nuclear Co.] (final concentration: 1.1 nM) and 50 μl of a test compound. The mixture was allowed to stand at 25° C. for 90 minutes and then rapidly filtered by suction through a glass fiber filter (GF/C manufactured by Whatman Co.). The filter was immediately washed three times with 5 ml each of ice cold 50 mM Tris HCl buffer, and transferred to a vial, and a scintillator (EX-H by Wako Pure Chemical Industries, Ltd.) was added thereto. The radioactivity on the filter was determined with a scintillation counter (manufactured by Packard Instrument Co.).
The inhibition rate of the test compound against the binding of A1 receptor (^3 H-CHA binding) was calculated by the following equation: [formula]
2. "T" means the radioactivity of ^3 H-CHA bound in the absence of a test compound.
3. "N" means the radioactivity of ^3 H-CHA bound in the presence of 10 μM N^6 -(L-2-phenylisopropyl)adenosine (manufactured by Sigma Co.).
The inhibition constant (Ki value) shown in the table was calculated by the Cheng-Prusoff's equation.

[4] = target: T2, Adenosine A2 receptor (Rattus norvegicus, UniProt P30543); experiment: Adenosine A2 receptor binding test (3H-NECA); details: for Ki: 3H-NECA, CPA 50 nM, rat corpus striatum; for inhibition at 10 µM / inhibition at 100 µM: read-out: A2 Receptor Inhibition (%)
T2 construct: using rat corpus striatum to prepare the final precipitate; from tissue; host or cells: rat corpus striatum membranes
T2 sequence (P30543 whole entry): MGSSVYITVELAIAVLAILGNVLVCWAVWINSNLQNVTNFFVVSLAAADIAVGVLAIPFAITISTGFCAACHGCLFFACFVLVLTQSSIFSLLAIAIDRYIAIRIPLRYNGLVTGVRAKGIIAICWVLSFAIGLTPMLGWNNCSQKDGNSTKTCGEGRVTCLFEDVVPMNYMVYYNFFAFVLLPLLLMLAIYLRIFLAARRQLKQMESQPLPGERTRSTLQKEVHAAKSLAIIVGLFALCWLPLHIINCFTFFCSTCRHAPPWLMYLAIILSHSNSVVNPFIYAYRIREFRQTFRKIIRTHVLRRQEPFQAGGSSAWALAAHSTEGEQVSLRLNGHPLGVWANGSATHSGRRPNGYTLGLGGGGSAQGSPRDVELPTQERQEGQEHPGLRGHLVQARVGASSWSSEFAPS
Description: The similar procedure as in 1) above was repeated using rat corpus striatum to prepare the final precipitate. The precipitate was suspended in 50 mM Tris HCl buffer containing 10 mM magnesium chloride and 0.02 unit/mg tissue of adenosine deaminase (manufactured by Sigma Co.) to give a tissue concentration of 5 mg (wet weight)/ml.
To 1 ml of the thus prepared tissue suspension were added 50 μl of a mixture of N-ethylcarboxamidoadenosine labeled with tritium [^3 H-NECA, 26 Ci/mmol, manufactured by Amersham Co.] […] (final concentration: 50 nM), and 50 μl of a test compound. The mixture was allowed to stand at 25° C. for 120 minutes and then treated in the same manner as in 1) above to determine the radioactivity.
The inhibition rate of the test compound against the binding of A2 receptor (^3 H-NECA binding) was calculated by the following equation: [formula]
2. "T" means the radioactivity of ^3 H-NECA bound in the absence of a test compound.
3. "N" means the radioactivity of ^3 H-NECA bound in the presence of 100 μM CPA.
The Ki value shown in the table was calculated by the following equation: [formula]
L: Concentration of ^3 H-NECA
Kd: Dissociation constant of ^3 H-NECA
Kc: Inhibition constant of CPA

[5] = tested on: left kidneys of male Wistar rats with glycerol-induced renal insufficiency; experiment: Pathological examination of removed kidneys (glycerol-induced renal insufficiency model); assay type: in vivo, rat
Description: as §1
Further, the left kidneys were taken out from the animals of the test compound-treated groups and the control groups to prepare pathological samples.

[6] = 1 mg/kg, control 4.53 ± 0.19, *** P < 0.001, ** P < 0.01
[7] = 1 mg/kg, control 193.6 ± 6.4, *** P < 0.001, ** P < 0.01

SMILES	Increase in volume of Urine ([1]; 25 mg/kg) [%]	Na+/K+ ([1]; 25 mg/kg)	increases in creatinine content and urea nitrogen content of the serum (in words) ([2]; conclusion from Table 4)	Ki [3] [nM]	inhibition at 100 µM [3] [%]	inhibition at 10 µM [3] [%]	Ki [4] [nM]	inhibition at 10 µM [4] [%]	inhibition at 100 µM [4] [%]	Increase in K+ excretion ([1]; 0.1 mg/kg) [%]	Increase in Na+ excretion ([1]; 0.1 mg/kg) [%]	Increase in volume of Urine ([1]; 0.1 mg/kg) [%]	Na+/K+ ([1]; 0.1 mg/kg)	Creatinine content in serum, test compound administered [2, 6] [mg/dL]	Urea nitrogen content in serum, test compound administered [2, 7] [mg/dL]	Increase in K+ excretion ([1]; 1.6 mg/kg) [%]	Increase in Na+ excretion ([1]; 1.6 mg/kg) [%]	Increase in volume of Urine ([1]; 1.6 mg/kg) [%]	Na+/K+ ([1]; 1.6 mg/kg)	other results
NS(=O)(=O)c1cc(C(=O)O)c(NCc2ccco2)cc1Cl [Furosemide, reference compound]	75	1.07	–	–	–	–	–	–	–	–	–	–	–	–	–	–	–	–	–	Creatinine content in serum, test compound administered ([2]; 10 mg/kg, control 3.22 ± 0.35, no significance mark): 4.17 ± 0.41 mg/dL; Urea nitrogen content in serum, test compound administered ([2]; 10 mg/kg, control 110.7 ± 9.4, * P < 0.05): 150.3 ± 13.7 mg/dL; serum creatinine (in words) ([2]; conclusion from Table 4): tendency to increase the serum creatinine
Cn1c(=O)c2[nH]cnc2n(C)c1=O [Aminophylline, reference compound]	34	1.62	weak effect	–	–	–	–	–	–	–	–	–	–	–	–	–	–	–	–	Increase in K+ excretion ([1]; 25 mg/kg): 17%; Increase in Na+ excretion ([1]; 25 mg/kg): 89%; Creatinine content in serum, test compound administered ([2]; 10 mg/kg, control 5.43 ± 0.11, no significance mark): 5.32 ± 0.19 mg/dL; Urea nitrogen content in serum, test compound administered ([2]; 10 mg/kg, control 182.5 ± 3.4, no significance mark): 174.0 ± 10.4 mg/dL
O=c1c2[nH]c(C34CC5CC(CC3C5)C4)nc2n(CC2CC2)c(=O)n1CC1CC1 [Compound 1, 1,3-Bis(cyclopropylmethyl)-8-(3-noradamantyl)xanthine]	–	–	significantly suppressed	1.9	101	99	> 10000	49	70	9	146	184	2.25	2.23 ± 0.30	97.2 ± 13.6	–	–	–	–	state of kidneys (pathological examination) [5]: significantly improved; Na+ diuretic action ([1]; conclusion in words from Table 3): potent; Creatinine content in serum, test compound administered ([2]; 0.1 mg/kg, control 4.53 ± 0.19, *** P < 0.001): 2.52 ± 0.24 mg/dL; Creatinine content in serum, test compound administered ([2]; 0.1 mg/kg, control 4.86 ± 0.12, *** P < 0.001): 1.97 ± 0.21 mg/dL; Urea nitrogen content in serum, test compound administered ([2]; 0.1 mg/kg, control 152.6 ± 4.1, *** P < 0.001): 61.3 ± 8.7 mg/dL; Urea nitrogen content in serum, test compound administered ([2]; 0.1 mg/kg, control 193.6 ± 6.4, *** P < 0.001): 109.4 ± 12.8 mg/dL
O=c1c2[nH]c(C(C3CC3)C3CC3)nc2n(C2CC2)c(=O)n1C1CC1 [Compound 4, 1,3-Dicyclopropyl-8-dicyclopropylmethylxanthine]	–	–	–	42	99	99	2400	104	108	–	–	–	–	2.55 ± 0.43	108.5 ± 16.8	18	54	54	1.31	–
O=c1c2[nH]c(C(C3CC3)C3CC3)nc2n(CC2CC2)c(=O)n1CC1CC1 [Compound 2, 1,3-Bis(cyclopropylmethyl)-8-dicyclopropylmethylxanthine]	–	–	–	2.7	101	100	210	93	100	–	–	–	–	–	–	4	49	43	1.44	–
O=c1c2[nH]c(C34CC5CC(CC3C5)C4)nc2n(C2CC2)c(=O)n1C1CC1 [Compound 3, 1,3-Dicyclopropyl-8-(3-noradamantyl)xanthine]	–	–	–	38	98	99	1300	78	103	0	52	48	1.52	–	–	8	118	93	2.02	–
